How the values were obtained:
[1] = Cytotoxicity against human Caki1 cells assessed as assessed as growth inhibition at 10^-5 M after 48 hrs by SRB assay relative to control; format: functional; conditions: CAKI-1, 48 h, read-out: GI
[2] = Cytotoxicity against human HT-29 cells assessed as growth inhibition after 48 hrs by SRB assay; format: functional; conditions: HT-29, 48 h
[3] = Cytotoxicity against human A498 cells assessed as assessed as growth inhibition at 10^-5 M after 48 hrs by SRB assay relative to control; format: functional; conditions: A498, 48 h, read-out: GI
Mus musculus [4] = organism: Mus musculus; test: Genotoxicity in mouse EAC cells at 375 uM after 24 hrs by micronucleus assay (reference value: 3.5 +/- 0.30%); format: toxicity, cell-based; conditions: ehrlich
[5] = Cytotoxicity against human IGROV1 cells assessed as assessed as growth inhibition at 10^-5 M after 48 hrs by SRB assay relative to control; format: functional; conditions: IGROV-1, 48 h, read-out: GI
[6] = Cytotoxicity against human TK10 cells assessed as assessed as growth inhibition at 10^-5 M after 48 hrs by SRB assay relative to control; format: functional; conditions: TK-10, 48 h, read-out: GI
[7] = Cytotoxicity against human EKVX cells assessed as growth inhibition after 48 hrs by SRB assay; format: functional
[8] = Induction of apoptosis in mouse EAC cells at 375 uM after 24 hrs by acridine orange dye-based fluorescence microscopy (reference value: 0.66 +/- 0.33%); format: cell-based; conditions: ehrlich
[9] = Cytotoxicity against human MOLT4 cells assessed as growth inhibition after 48 hrs by SRB assay; format: functional; conditions: MOLT-4, 48 h
[10] = Cytotoxicity against human CCRF-CEM cells assessed as growth inhibition after 48 hrs by SRB assay; format: functional
[11] = Cytotoxicity against human NCI-H23 cells assessed as assessed as growth inhibition at 10^-5 M after 48 hrs by SRB assay relative to control; format: functional; conditions: NCI-H23, 48 h, read-out: GI
Mus musculus [12] = organism: Mus musculus; test: Genotoxicity in mouse EAC cells at 125 uM after 24 hrs by micronucleus assay (reference value: 3.5 +/- 0.30%); format: toxicity, cell-based; conditions: ehrlich
[13] = Cytotoxicity against human KM12 cells assessed as growth inhibition after 48 hrs by SRB assay; format: functional; conditions: KM12, 48 h
[14] = Cytotoxicity against human KM12 cells assessed as assessed as growth inhibition at 10^-5 M after 48 hrs by SRB assay relative to control; format: functional; conditions: KM12, 48 h, read-out: GI
[15] = Cytotoxicity against human 786-0 cells assessed as assessed as growth inhibition at 10^-5 M after 48 hrs by SRB assay relative to control; format: functional; conditions: 786-0, 48 h, read-out: GI
[16] = Cytotoxicity against human OVCAR3 cells assessed as growth inhibition after 48 hrs by SRB assay; format: functional; conditions: OVCAR-3, 48 h
[17] = Cytotoxicity against human NCI-ADR-RES cells assessed as growth inhibition after 48 hrs by SRB assay; format: functional
[18] = Cytotoxicity against human MDA-MB-468 cells assessed as growth inhibition after 48 hrs by SRB assay; format: functional; conditions: MDA-MB-468, 48 h
[19] = Cytotoxicity against human DU145 cells assessed as growth inhibition after 48 hrs by SRB assay; format: functional; conditions: DU-145, 48 h
[20] = Cytotoxicity against human K562 cells assessed as growth inhibition after 48 hrs by SRB assay; format: functional; conditions: K562, 48 h
[21] = Cytotoxicity against human M14 cells assessed as growth inhibition after 48 hrs by SRB assay; format: functional; conditions: M14, 48 h
[22] = Cytotoxicity against human SKOV3 cells assessed as growth inhibition after 48 hrs by SRB assay; format: functional; conditions: SK-OV-3, 48 h
[23] = Cytotoxicity against human HCT15 cells assessed as assessed as growth inhibition at 10^-5 M after 48 hrs by SRB assay relative to control; format: functional; conditions: HCT-15, 48 h, read-out: GI
[24] = Cytotoxicity against human MDA-MB-435 cells assessed as growth inhibition after 48 hrs by SRB assay; format: functional; conditions: MDA-MB-435, 48 h
[25] = Cytotoxicity against human LOXIMVI cells assessed as growth inhibition after 48 hrs by SRB assay; format: functional; conditions: LOX IMVI
[26] = Cytotoxicity against human Hs 578T cells assessed as growth inhibition after 48 hrs by SRB assay; format: functional
[27] = Cytotoxicity against human SN12C cells assessed as growth inhibition after 48 hrs by SRB assay; format: functional
[28] = Cytotoxicity against human UACC257 cells assessed as growth inhibition after 48 hrs by SRB assay; format: functional; conditions: UACC-257, 48 h
[29] = Cytotoxicity against human UACC257 cells assessed as assessed as growth inhibition at 10^-5 M after 48 hrs by SRB assay relative to control; format: functional; conditions: UACC-257, 48 h, read-out: GI
[30] = Cytotoxicity against human RXF393 cells assessed as growth inhibition after 48 hrs by SRB assay; format: functional; conditions: RXF 393, 48 h
[31] = Cytotoxicity against human LOXIMVI cells assessed as assessed as growth inhibition at 10^-5 M after 48 hrs by SRB assay relative to control; format: functional; conditions: LOX IMVI, read-out: GI
[32] = Cytotoxicity against human UACC62 cells assessed as growth inhibition after 48 hrs by SRB assay; format: functional; conditions: UACC-62, 48 h
[33] = Cytotoxicity against human SK-MEL-2 cells assessed as assessed as growth inhibition at 10^-5 M after 48 hrs by SRB assay relative to control; format: functional; conditions: SK-MEL-2, 48 h, read-out: GI
[34] = Cytotoxicity against human MDA-MB-231 cells assessed as growth inhibition after 48 hrs by SRB assay; format: functional; conditions: MDA-MB-231, 48 h
[35] = read-out: LD50 (the source's name)

Q: Which inhibition of growth at 10 µM [1] does the source give for O=C1Cc2cc(CCn3cncn3)c(Cl)cc2N1 here?
A: 40%

Q: And the GI50 [2]?
A: 1 µM

Q: And the TGI [2]?
A: > 1 µM

Q: What about the CC50 [2, 35] of the same molecule?
A: > 1 µM

Q: And the inhibition of growth at 10 µM [3]?
A: 52.9%

Q: And the Activity (Mus musculus [4])?
A: 4.13%

Q: What about the inhibition of growth at 10 µM [5] of the same molecule?
A: 15.3%

Q: What about the inhibition of growth at 10 µM [6] of the same molecule?
A: -21.7%

Q: And the GI50 [7]?
A: 8.25 µM

Q: What about the TGI [7] of the same molecule?
A: > 1 µM

Q: What about the CC50 [7, 35] of the same molecule?
A: > 1 µM

Q: And the Activity [8]?
A: 0.9%

Q: And the GI50 [9]?
A: 1 µM

Q: What about the TGI [9] of the same molecule?
A: > 1 µM

Q: And the CC50 [9, 35]?
A: > 1 µM

Q: What about the GI50 [10] of the same molecule?
A: 3.5 µM

Q: And the TGI [10]?
A: > 1 µM

Q: What about the CC50 [10, 35] of the same molecule?
A: > 1 µM

Q: What about the inhibition of growth at 10 µM [11] of the same molecule?
A: 75.9%

Q: What about the Activity (Mus musculus [12]) of the same molecule?
A: 3.27%

Q: What about the GI50 [13] of the same molecule?
A: 5.42 µM

Q: What about the TGI [13] of the same molecule?
A: > 1 µM

Q: And the CC50 [13, 35]?
A: > 1 µM

Q: What about the inhibition of growth at 10 µM [14] of the same molecule?
A: 64%

Q: And the inhibition of growth at 10 µM [15]?
A: 5.34%

Q: And the GI50 [16]?
A: 1 µM

Q: And the TGI [16]?
A: > 1 µM

Q: What about the CC50 [16, 35] of the same molecule?
A: > 1 µM

Q: And the GI50 [17]?
A: 5.85 µM

Q: What about the TGI [17] of the same molecule?
A: > 1 µM

Q: And the CC50 [17, 35]?
A: > 1 µM

Q: And the GI50 [18]?
A: 2.18 µM

Q: What about the TGI [18] of the same molecule?
A: 9.54 µM

Q: And the CC50 [18, 35]?
A: > 1 µM

Q: And the GI50 [19]?
A: 1 µM

Q: What about the TGI [19] of the same molecule?
A: > 1 µM

Q: And the CC50 [19, 35]?
A: > 1 µM

Q: And the GI50 [20]?
A: 7.68 µM

Q: And the TGI [20]?
A: > 1 µM

Q: And the CC50 [20, 35]?
A: > 1 µM

Q: And the GI50 [21]?
A: 3.96 µM

Q: What about the TGI [21] of the same molecule?
A: > 1 µM

Q: What about the CC50 [21, 35] of the same molecule?
A: > 1 µM

Q: What about the GI50 [22] of the same molecule?
A: 3.65 µM

Q: What about the TGI [22] of the same molecule?
A: > 1 µM

Q: What about the CC50 [22, 35] of the same molecule?
A: > 1 µM

Q: What about the inhibition of growth at 10 µM [23] of the same molecule?
A: 45.4%

Q: And the GI50 [24]?
A: 3.22 µM

Q: And the TGI [24]?
A: > 1 µM

Q: And the CC50 [24, 35]?
A: > 1 µM

Q: What about the GI50 [25] of the same molecule?
A: 1 µM

Q: And the TGI [25]?
A: > 1 µM

Q: What about the CC50 [25, 35] of the same molecule?
A: > 1 µM

Q: And the GI50 [26]?
A: 7.2 µM

Q: And the TGI [26]?
A: > 1 µM

Q: And the CC50 [26, 35]?
A: > 1 µM

Q: What about the GI50 [27] of the same molecule?
A: 1 µM

Q: What about the TGI [27] of the same molecule?
A: > 1 µM

Q: What about the CC50 [27, 35] of the same molecule?
A: > 1 µM

Q: What about the GI50 [28] of the same molecule?
A: 7.14 µM

Q: What about the TGI [28] of the same molecule?
A: > 1 µM

Q: And the CC50 [28, 35]?
A: > 1 µM

Q: What about the inhibition of growth at 10 µM [29] of the same molecule?
A: 48.3%

Q: And the GI50 [30]?
A: 7.48 µM

Q: What about the TGI [30] of the same molecule?
A: > 1 µM

Q: What about the CC50 [30, 35] of the same molecule?
A: > 1 µM

Q: What about the inhibition of growth at 10 µM [31] of the same molecule?
A: 19%

Q: What about the GI50 [32] of the same molecule?
A: 2.07 µM

Q: And the TGI [32]?
A: > 1 µM

Q: And the CC50 [32, 35]?
A: > 1 µM

Q: And the inhibition of growth at 10 µM [33]?
A: 28.7%

Q: What about the GI50 [34] of the same molecule?
A: 4.66 µM

Q: And the TGI [34]?
A: > 1 µM

Q: What about the CC50 [34, 35] of the same molecule?
A: > 1 µM

— ChEMBL document CHEMBL3856212, “Synthesis, anti-proliferative and genotoxicity studies of 6-chloro-5-(2-substituted-ethyl)-1,3-dihydro-2H-indol-2-ones and 6-chloro-5-(2-chloroethyl)-3-(alkyl/ary-2-ylidene)indolin-2-ones” (Eur J Med Chem, 2016)
